How the values were obtained:
Format in all cases: in vivo
[1] = test system: Alopecurus myosuroides (ALOMY); test: Herbicidal pre-emergence action, test D, single sowings (Table D1); conditions: 80 g/ha; scored visually after about 3 weeks; 100% = plants have died, 0% = like control plants
From the text: (§1) Seeds of monocotyledonous and dicotyledonous weed plants were laid out in plastic or organic plant pots (single sowings with one species of mono- or dicotyledonous weed plant per pot) and covered with soil. The compounds of the invention, formulated in the form of wettable powders (WP) or as emulsion concentrates (EC), were then applied to the surface of the covering soil as aqueous suspension or emulsion with addition of 0.5% additive at a water application rate equivalent to 600 l/ha (converted). After the treatment, the pots were placed in a greenhouse and kept under good growth conditions for the test plants. After about 3 weeks, the effect of the preparations was scored visually in comparison with untreated controls as percentages. For example, 100% activity=the plants have died, 0% activity=like control plants. Tables D1 to D8 below show the effects of selected compounds of the general formula (I) according to Table 1 on various harmful plants and an application rate corresponding to 80 g/ha, which were obtained by the experimental procedure mentioned above.

Veronica persica (VERPE) [2] = test: Herbicidal pre-emergence action, test D, single sowings (Table D8); conditions: dosage 80 g/ha, scored after about 3 weeks
From the text: as §1

[3] = test system: Matricaria inodora (MATIN); test: Herbicidal post-emergence action (Table B7); conditions: rated visually after about 3 weeks, 100% = plants have died, 0% = like control plants
Summary of the method: (§2)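 Application rates of 1280 or 320 g/ha were tested post-emergence on one-leaf-stage greenhouse plants in sandy loam, using WP or EC formulations with 0.5% additive at 600 L/ha. Activity was rated visually against untreated plants about 3 weeks later.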

viola tricolor (VIOTR) = test: Herbicidal pre-emergence action, test D, single sowings (Table D7); conditions: dosage 80 g/ha, scored after about 3 weeks
From the text: as §1

[4] = test system: Amaranthus retroflexus (AMARE); test: Herbicidal pre-emergence action, test D, single sowings (Table D5); conditions: dosage 80 g/ha, scored after about 3 weeks
From the text: as §1

[5] = test system: Abutilon theophrasti (ABUTH); test: Herbicidal pre-emergence action, test D, single sowings (Table D4); conditions: dosage 80 g/ha, scored after about 3 weeks
From the text: as §1

Bassia scoparia (KCHSC) = test: Herbicidal pre-emergence action, test C (Table C11); conditions: visual scoring vs untreated controls
Summary of the method: (§3)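 After sowing weed seeds into sandy loam and covering them, the soil surface was treated with aqueous WP or EC preparations containing 0.5% additive, 600 L/ha, at 1280 or 320 g/ha. Scoring was visual, in percent against untreated, at about 3 weeks.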

Veronica persica (VERPE) [6] = test: Herbicidal pre-emergence action, test C (Table C12); conditions: visual scoring vs untreated controls
Summary of the method: as §3

[7] = test system: Digitaria sanguinalis (DIGSA); test: Herbicidal post-emergence action (Table B10); conditions: visual rating about 3 weeks after treatment, 100% = plants have died, 0% = like control plants
Summary of the method: as §2

Veronica persica (VERPE) [8] = test: Herbicidal post-emergence action (Table B12); conditions: visual rating about 3 weeks after treatment, 100% = plants have died, 0% = like control plants
Summary of the method: as §2

Structure (SMILES) | Pre-emergence action against Alopecurus myosuroides (ALOMY) [1] | Pre-emergence action against Veronica persica (VERPE) (Veronica persica (VERPE) [2]) | Post-emergence action against Matricaria inodora (MATIN) ([3]; 1280 g/ha) | Pre-emergence action against viola tricolor (VIOTR) (viola tricolor (VIOTR)) | Pre-emergence action against Amaranthus retroflexus (AMARE) [4] | Pre-emergence action against Abutilon theophrasti (ABUTH) [5] | Pre-emergence action against Bassia scoparia (KCHSC) (Bassia scoparia (KCHSC); dosage 1280 g/ha) | Pre-emergence action against Veronica persica (VERPE) (Veronica persica (VERPE) [6]; dosage 320 g/ha) | Pre-emergence action against Veronica persica (VERPE) (Veronica persica (VERPE) [6]; dosage 1280 g/ha) | Post-emergence action against Digitaria sanguinalis (DIGSA) ([7]; dosage 320 g/ha) | Post-emergence action against Digitaria sanguinalis (DIGSA) ([7]; dosage 1280 g/ha) | Post-emergence action against Veronica persica (VERPE) (Veronica persica (VERPE) [8]; dosage 320 g/ha) | Post-emergence action against Veronica persica (VERPE) (Veronica persica (VERPE) [8]; dosage 1280 g/ha) | Post-emergence action against Matricaria inodora (MATIN) ([3]; 320 g/ha) | Pre-emergence action against Bassia scoparia (KCHSC) (Bassia scoparia (KCHSC); dosage 320 g/ha)
Fc1cc(Cl)cnc1Oc1cccc(F)c1-c1cc(C(F)F)no1 [Example 1-19] | 100% | 100% | 100% | 100% | 100% | 100% |  |  |  |  |  |  |  |  | 
Fc1cc(Cl)cnc1Oc1ccccc1-c1cc(C(F)F)no1 [Example 1-36] |  | 100% |  | 100% | 100% | 100% | 90% | 100% | 100% | 100% | 100% | 100% | 100% |  | 
Fc1cccc(Oc2ccc(Cl)cn2)c1-c1cc(C(F)F)no1 [Example 1-17] | 100% | 100% | 100% | 100% | 100% | 100% |  |  |  |  |  |  |  | 100% | 
Cc1cccc(Oc2ncc(Cl)cc2F)c1-c1cc(C(F)F)no1 [Example 1-20] |  |  | 100% |  |  |  | 90% | 100% | 100% | 100% | 100% | 100% | 100% |  | 
FC(F)c1cc(-c2ccccc2Oc2ccc(Cl)cn2)on1 [Example 1-35] |  | 100% |  | 90% | 100% | 80% | 90% | 100% | 100% | 90% | 100% | 100% | 100% |  | 
Cc1cccc(Oc2ccc(Cl)cn2)c1-c1cc(C(F)F)no1 [Example 1-18, 5-[2-[(5-Chloro-2-pyridyl)oxy]-6-methylphenyl]-3-(difluoromethyl)isoxazole] |  |  | 100% |  |  |  | 90% | 100% | 100% | 100% | 100% | 100% | 100% |  | 
Fc1cccc(Oc2ccc(Br)cn2)c1-c1cc(C(F)F)no1 [Example 1-40] |  |  | 100% |  |  |  | 100% | 100% | 100% | 100% | 100% | 100% | 100% | 100% | 100%
